Results published in ChEMBL document CHEMBL3286291, “Synthesis and biological evaluation of substituted 4,6-diarylpyrimidines and 3,5-diphenyl-4,5-dihydro-1H-pyrazoles as anti-tubercular agents” (Bioorg Med Chem Lett, 2014).

How the values were obtained:
[1] = Cytotoxicity against human THP1 cells by MTT assay; format: cell-based; settings: THP-1 cells
[2] = Selectivity index, ratio of CC50 for human THP1 cells to MIC for Mycobacterium tuberculosis H37Rv; format: toxicity, cell-based; settings: THP-1 cells, read-out: Selectivity Index
[3] = tested on: Mycobacterium tuberculosis; test: Antitubercular activity against Mycobacterium tuberculosis H37Rv by microplate alamar blue assay; format: functional

For `COc1ccc(-c2cc(-c3cc(OC)c(OC)c(OC)c3)nc(N)n2)cc1`, the CC50 [1] was 100 µM, the selectivity ratio [2] was 4 and the MIC [3] was 25 µM.

`COc1cc(C2CC(c3ccc(Br)cc3)=NN2C(C)=O)cc(OC)c1OC` (stereo unspecified) showed a CC50 [1] of 100 µM, a selectivity ratio [2] of 8 and an MIC [3] of 12.5 µM.

`COc1ccc(C2=NN(C(C)=O)C(c3cc(OC)c(OC)c(OC)c3)C2)cc1` (stereo unspecified) gave a CC50 [1] of 200 µM, a selectivity ratio [2] of 4 and an MIC [3] of 50 µM.

With `COc1cc(-c2cc(-c3ccc(Br)cc3)nc(N)n2)cc(OC)c1OC` the CC50 [1] was 100 µM and the MIC [3] was 50 µM.

With `COc1cc(-c2cc(-c3cc(OC)c(OC)c(OC)c3)nc(N)n2)cc(OC)c1OC` the MIC [3] was > 100 µM.

In the case of `COc1ccc(C2CC(c3ccc4c(c3)OCO4)=NN2C(C)=O)cc1` (stereo unspecified), the CC50 [1] was 200 µM and the MIC [3] was 100 µM.

Work on `COc1ccc(-c2cc(-c3cc(OC)c(OC)c(OC)c3)nc(-c3ccccn3)n2)cc1` yielded a CC50 [1] of 50 µM and an MIC [3] of 25 µM.

In the case of `COc1cc(-c2cc(-c3ccc4c(c3)OCO4)nc(N)n2)cc(OC)c1OC`, the CC50 [1] was 200 µM and the MIC [3] was > 100 µM.

`COc1ccc(-c2cc(-c3cc(OC)c(OC)c(OC)c3)nc(-c3cccnc3)n2)cc1` gave a CC50 [1] of 200 µM and an MIC [3] of 100 µM.

For `COc1cc(C2=NN(C(C)=O)C(c3cc(OC)c(OC)c(OC)c3)C2)cc(OC)c1OC` (stereo unspecified), the CC50 [1] was 200 µM and the MIC [3] was > 100 µM.

`COc1cc(C2CC(c3ccc(Cl)cc3)=NN2C(C)=O)cc(OC)c1OC` (stereo unspecified) showed a CC50 [1] of 100 µM, a selectivity ratio [2] of 8 and an MIC [3] of 12.5 µM.

Work on `CC1=NN(C(=O)c2cc(-c3ccc(Cl)cc3)n[nH]2)C(=O)/C1=N/Nc1cccc(F)c1` yielded an MIC [3] of 0.35 µg/mL.

For `COc1cc(-c2cc(-c3ccc(F)cc3)nc(N)n2)cc(OC)c1OC`, the MIC [3] was 50 µM.

With `COc1cc(C2CC(c3ccc4c(c3)OCO4)=NN2C(C)=O)cc(OC)c1OC` (stereo unspecified) the CC50 [1] was 200 µM and the MIC [3] was 100 µM.

In the case of `COc1cc(-c2cc(-c3ccc(Cl)cc3)nc(N)n2)cc(OC)c1OC`, the MIC [3] was 50 µM.

For `COc1cc(-c2cc(-c3ccc4c(c3)OCO4)nc(-c3ccncc3)n2)cc(OC)c1OC`, the CC50 [1] was 400 µM and the MIC [3] was > 100 µM.

In the case of `COc1cc(-c2cc(-c3cc(OC)c(OC)c(OC)c3)nc(-c3ccncc3)n2)cc(OC)c1OC`, the MIC [3] was > 100 µM.

With `COc1ccc(-c2cc(-c3ccc4c(c3)OCO4)nc(N)n2)cc1` the MIC [3] was > 100 µM.

With `COc1ccc(-c2cc(-c3cc(OC)c(OC)c(OC)c3)nc(-c3ccncc3)n2)cc1` the MIC [3] was > 100 µM.

In the case of `CCSc1nc(Cl)c(C#N)c(-c2ccc(F)cc2F)n1`, the MIC [3] was 0.78 µg/mL.
